One series addresses hERG channel (Homo sapiens (Human), UniProt Q12809). Kind of series: hERG channel inhibition assay (patch-clamp, CHOhERG cells). It is filed as cell-based. Particulars: for IC20: human, CHO cells stably expressing hERG (CHOhERG). The text has this:
The hERG K^+ channels were cloned in humans and stably expressed in a CHO (Chinese hamster ovary) cell line. CHOhERG cells (obtained from Roche Palo Alto LLC Cell Core Facilities) were used for patch-clamp (voltage-clamp, whole-cell) experiments. Cells were stimulated by a voltage pattern to activate hERG channels and conduct IKhERG currents (rapid delayed outward rectifier potassium current of the hERG channel). After the cells were stabilized in an internal solution that contains (in mM): KCl 10, KF 100, NaCl 10, HEPES 10, EGTA 20, pH=7.2 with KOH (osmolarity 260-300 mOsm) for a few minutes, the amplitude and kinetics of IKhERG were recorded at a stimulation frequency of 0.1 Hz (6 bpm). Thereafter, the test compound was dissolved in extracellular solution that contains (in mM): NaCl 150, KCl 4, CaCl2 1.2, MgCl2 1, HEPES 10, glucose 5, pH 7.2-7.4 with NaOH (osmolarity 290-330 mOsm), and was added to the preparation at increasing concentrations. For each concentration, an attempt was made to reach a steady-state effect, usually, this was achieved within 3-10 min at which time the next highest concentration was applied. The amplitude and kinetics of IKhERG are recorded in each concentration of the drug which were compared to the control values (taken as 100%).
For orientation: The hERG channel carries a current that helps repolarise heart muscle cells.

Series [1] is described as follows: Metabolic (liver microsomal) stability assay. Conditions: human liver microsomes, 1 μM test compound. (Liver microsomes are vesicles of endoplasmic reticulum, rich in cytochrome P450 enzymes.)
Method: The liver microsomal stability assay is used for early assessment of metabolic stability of a test compound in liver microsomes.
Liver microsomes were preincubated with test compound for 10 minutes at 37° C. in 100 mM potassium phosphate buffer, pH 7.4. The reactions were initiated by adding NADPH regenerating system. The final incubation mixtures contained 1 μM test compound, 0.5 mg/mL liver microsomal protein, 1 mM MgCl2, 1 mM NADP, 1 unit/mL isocitric dehydrogenase and 6 mM isocitric acid in 100 mM potassium phosphate buffer, pH 7.4. After incubation times of 0, 3, 6, 9, 15 and 30 minutes at 37° C., 300 μL of cold acetonitrile (including internal standard) was added to 100 μL incubation mixture to terminate the reaction. Following precipitation and centrifugation, the amount of compound remaining in the samples were determined by LC-MS/MS. Controls of no NADPH regenerating system at zero and 30 minutes were also prepared and analyzed.
In series [2] the target is human stimulator of interferon genes (STING) (139-379) (Homo sapiens (Human), UniProt Q86WV6). Kind of series: Microliter plate-based TR-FRET competition-binding assay for binders of STING. Conditions: Alexa488 probe, read-out: FRET_IC50. In outline:
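E. coli-expressed C-terminal flag-tagged STING (139-379) at 2.5 nM with 2.5 nM Tb-anti-Flag and 250 nM Alexa488-labelled active-site probe, 30 min at room temperature. TR-FRET 520/485 nm ratio after 320 nm excitation. Percent inhibition calculated relative to the 2′3′cGAMP positive control.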
In general terms: TR-FRET usually uses a lanthanide donor and a delayed reading to cut background.

The subject of a further series is STING (IFN-β in hPBMC). The experiment in a line: hPBMC cytokine functional assay (IFN-β decrease after Baculovirus stimulation). It is filed as cell-based. Particulars: Homo sapiens, Baculovirus MOI 40, 24 hours, read-out: hPBMC_IC50. In outline:
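Thawed hPBMC (70K cells/well) rested ≥3 h, then dosed with compound (final 0.5% DMSO) and infected with Baculovirus at MOI 40. Secreted IFN-β read by HTRF after 24 h at 37 °C. Cell viability checked in parallel by CellTiter-Glo.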

pIC50: −log10 of the molar value.

Chain of hERG channel (Q12809 whole entry): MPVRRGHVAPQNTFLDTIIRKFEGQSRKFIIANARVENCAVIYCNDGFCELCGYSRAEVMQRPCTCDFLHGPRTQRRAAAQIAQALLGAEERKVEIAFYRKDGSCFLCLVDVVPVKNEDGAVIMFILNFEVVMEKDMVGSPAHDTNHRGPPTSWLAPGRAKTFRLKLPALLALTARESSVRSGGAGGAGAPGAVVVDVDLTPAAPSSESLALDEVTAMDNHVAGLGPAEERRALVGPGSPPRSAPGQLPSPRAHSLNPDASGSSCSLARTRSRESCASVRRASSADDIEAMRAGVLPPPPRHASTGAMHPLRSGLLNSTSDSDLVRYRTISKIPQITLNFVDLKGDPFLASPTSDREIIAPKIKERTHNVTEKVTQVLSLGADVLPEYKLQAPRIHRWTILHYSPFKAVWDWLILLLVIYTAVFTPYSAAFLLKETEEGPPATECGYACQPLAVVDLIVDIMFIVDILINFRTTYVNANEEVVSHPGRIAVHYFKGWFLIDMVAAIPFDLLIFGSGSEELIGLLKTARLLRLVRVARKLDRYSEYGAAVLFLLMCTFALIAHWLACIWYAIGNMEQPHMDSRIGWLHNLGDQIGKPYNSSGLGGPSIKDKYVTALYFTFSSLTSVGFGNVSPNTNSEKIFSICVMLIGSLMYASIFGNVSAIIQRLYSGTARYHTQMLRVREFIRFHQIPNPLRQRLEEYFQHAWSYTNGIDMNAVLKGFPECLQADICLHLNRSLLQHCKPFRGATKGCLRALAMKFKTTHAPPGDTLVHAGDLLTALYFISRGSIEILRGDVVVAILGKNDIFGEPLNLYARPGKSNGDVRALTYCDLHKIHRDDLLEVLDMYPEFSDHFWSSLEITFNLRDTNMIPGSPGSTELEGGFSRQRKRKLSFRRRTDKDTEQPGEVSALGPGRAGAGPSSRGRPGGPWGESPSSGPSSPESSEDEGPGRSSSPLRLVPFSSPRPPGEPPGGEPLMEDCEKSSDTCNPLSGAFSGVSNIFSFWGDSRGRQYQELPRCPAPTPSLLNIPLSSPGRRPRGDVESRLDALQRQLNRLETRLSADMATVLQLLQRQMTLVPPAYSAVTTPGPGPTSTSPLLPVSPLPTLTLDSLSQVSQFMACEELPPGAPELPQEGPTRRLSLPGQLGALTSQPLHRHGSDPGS
Chain of human stimulator of interferon genes (STING) (139-379) (Q86WV6 139-379): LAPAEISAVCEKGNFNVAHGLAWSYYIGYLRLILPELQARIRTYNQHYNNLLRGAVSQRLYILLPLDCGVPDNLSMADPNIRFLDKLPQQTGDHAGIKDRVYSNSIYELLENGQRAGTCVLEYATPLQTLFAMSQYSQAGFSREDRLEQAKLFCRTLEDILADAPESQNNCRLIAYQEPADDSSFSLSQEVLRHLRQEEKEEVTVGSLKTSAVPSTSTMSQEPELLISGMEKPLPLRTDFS

What is called IC20 is the concentration at which the effect reaches the 20% level. A lower IC20 goes with greater potency. Regarding `COc1cc(F)ccc1-n1ncc2c(N3C[C@@H]4C[C@H]3C(=O)N(CCCN3CCOCC3)CCCc3c5c(cccc5nn3C)-c3cccc(n3)N4)ncnc21` [Example 43, (8S,11S)-10-[1-(4-fluoro-2-methoxy-phenyl)pyrazolo[3,4-d]pyrimidin-4-yl]-18-methyl-13-(3-morpholinopropyl)-7,10,13,18,19,26-hexazapentacyclo[15.6.1.1^2,6.1^8,11.0^20,24]hexacosa-1(23),2(26),3,5,17(24),19,21-heptaen-12-one], the pIC50 at hERG channel is < 4.70; in series [2], 8.46; with STING (IFN-β in hPBMC), 6.53. Moreover, the IC20 on hERG channel is > 10 µM. For the same molecule, the “Clearance of human microsome” value in series [1] came to 0.72 L/h/kg.
Consider `CN1CCCc2c3c(cccc3nn2C)-c2cncc(n2)N[C@H]2C[C@@H](C1=O)N(c1ncnc3c1cnn3-c1ccc(F)cc1F)C2` [Example 7, (8S,11S)-10-[1-(2,4-difluorophenyl)pyrazolo[3,4-d]pyrimidin-4-yl]-13,18-dimethyl-4,7,10,13,18,19,26-heptazapentacyclo[15.6.1.1^2,6.1^8,11.0^20,24]hexacosa-1(23),2,4,6(26),17(24),19,21-heptaen-12-one], for which the “Clearance of human microsome” value in series [1] was 0.798 L/h/kg. Further, the values for the pIC50 (in series [2]; in the series on STING (IFN-β in hPBMC)) were 9.40 and 6.49, respectively.
With `Cn1cnc(CN2CCCc3c4c(cccc4nn3C)-c3cccc(c3)O[C@H]3C[C@@H](C2=O)N(c2ncnc4c2cnn4-c2ccc(F)cc2F)C3)n1` [Example 16, (8S,11S)-10-[1-(2,4-difluorophenyl)pyrazolo[3,4-d]pyrimidin-4-yl]-18-methyl-13-[(1-methyl-1,2,4-triazol-3-yl)methyl]-7-oxa-10,13,18,19 tetrazapentacyclo[15.6.1.1^2,6.1^8,11.0^20,24]hexacosa-1(23),2(26),3,5,17(24),19,21-heptaen-12-one], in series [1], the “Clearance of human microsome” value is 0.954 L/h/kg. Moreover, the pIC50 is 8.51 in series [2] and 6.42 in the series with STING (IFN-β in hPBMC).
Consider `CN1CCN(CCCN2CCCc3c4c(cccc4nn3C)-c3cccc(c3)O[C@H]3C[C@@H](C2=O)N(c2ncnc4c2cnn4-c2ccc(F)cc2F)C3)CC1` [Example 32, (8S,11S)-10-[1-(2,4-difluorophenyl)pyrazolo[3,4-d]pyrimidin-4-yl]-18-methyl-13-[3-(4-methylpiperazin-1-yl)propyl]-7-oxa-10,13,18,19-tetrazapentacyclo[15.6.1.1^2,6.1^8,11.0^20,24]hexacosa-1(23),2(26),3,5,17(24),19,21-heptaen-12-one], for which the “Clearance of human microsome” value in series [1] was 0.69 L/h/kg. Moreover, the pIC50 in series [2] is 8.49; in the series on STING (IFN-β in hPBMC) it was 5.96.
For `Cn1nc2cccc3c2c1CCCN(CC1CC1)C(=O)[C@@H]1C[C@@H](CN1c1ncnc2c1cnn2-c1ccc(F)cc1F)Oc1nccc-3n1` [Example 19, (8S,11S)-13-(cyclopropylmethyl)-10-[1-(2,4-difluorophenyl)pyrazolo[3,4-d]pyrimidin-4-yl]-18-methyl-7-oxa-5,10,13,18,19,26-hexazapentacyclo[15.6.1.1^2,6.1^8,11.0^20,24]hexacosa-1(23),2(26),3,5,17(24),19,21-heptaen-12-one], the “Clearance of human microsome” value in series [1] is 0.6 L/h/kg. In addition, the pIC50 in series [2] was 7.88; in the series on STING (IFN-β in hPBMC), 6.01.
With `Cn1nc2cccc3c2c1CCCNC(=O)[C@@H]1C[C@@H](CN1c1ncnc2c1cnn2-c1ccc(F)cc1F)Oc1ccnc-3c1` [Example 10, (8S,11S)-10-[1-(2,4-difluorophenyl)pyrazolo[3,4-d]pyrimidin-4-yl]-18-methyl-7-oxa-3,10,13,18,19-pentazapentacyclo[15.6.1.1^2,6.1^8,11.0^20,24]hexacosa-1(23),2(26),3,5,17(24),19,21-heptaen-12-one], at hERG channel, the pIC50 was < 5.00 and it took 8.2 µM to reach the 20% level (IC20). Further, in series [1], the “Clearance of human microsome” value turned out to be 0.498 L/h/kg. The pIC50 in series [2] is 8.29.
Turning to `COc1cc(F)ccc1-n1ncc2c(N3C[C@@H]4C[C@H]3C(=O)N(C)CCCc3c5c(cc(F)cc5nn3C)-c3ccnc(n3)O4)ncnc21` [Example 12, (8S,11S)-22-fluoro-10-[1-(4-fluoro-2-methoxy-phenyl)pyrazolo[3,4-d]pyrimidin-4-yl]-13,18-dimethyl-7-oxa-5,10,13,18,19,26-hexazapentacyclo[15.6.1.1^2,6.1^8,11.0^20,24]hexacosa-1(23),2(26),3,5,17(24),19,21-heptaen-12-one], the “Clearance of human microsome” value in series [1] was 0.792 L/h/kg. The pIC50 in series [2] was 7.74; with STING (IFN-β in hPBMC), 5.85.
In the case of `CN1CCCc2c3c(cccc3nn2C)-c2cccc(n2)O[C@H]2C[C@@H](C1=O)N(c1ncnc3c1cnn3-c1ccc(F)cc1F)C2` [Example 9, (8S,11S)-10-[1-(2,4-difluorophenyl)pyrazolo[3,4-d]pyrimidin-4-yl]-13,18-dimethyl-7-oxa-10,13,18,19,26-pentazapentacyclo[15.6.1.1^2,6.1^8,11.0^20,24]hexacosa-1(23),2(26),3,5,17(24),19,21-heptaen-12-one], the pIC50 against hERG channel is < 4.70; in series [2], 7.75; in the series on STING (IFN-β in hPBMC), 5.80. In addition, on hERG channel, the IC20 was > 10 µM. For the same molecule, the “Clearance of human microsome” value in series [1] was 0.696 L/h/kg.
As to `Cn1nc2cccc3c2c1CCCN(CCCN1CC2(COC2)C1)C(=O)[C@@H]1C[C@@H](CN1c1ncnc2c1cnn2-c1ccc(F)cc1F)Oc1cccc-3c1` [Example 31, (8S,11S)-10-[1-(2,4-difluorophenyl)pyrazolo[3,4-d]pyrimidin-4-yl]-18-methyl-13-[3-(2-oxa-6-azaspiro[3.3]heptan-6-yl)propyl]-7-oxa-10,13,18,19-tetrazapentacyclo[15.6.1.1^2,6.1^8,11.0^20,24]hexacosa-1(23),2(26),3,5,17(24),19,21-heptaen-12-one], the “Clearance of human microsome” value in series [1] came out at 0.744 L/h/kg. Further, the pIC50 in series [2] is 8.14; with STING (IFN-β in hPBMC), 6.29.
Turning to `CN1CC2CC1CN2CCCN1CCCc2c3c(cccc3nn2C)-c2cccc(c2)O[C@H]2C[C@@H](C1=O)N(c1ncnc3c1cnn3-c1ccc(F)cc1F)C2` [Example 34, (8S,11S)-10-[1-(2,4-difluorophenyl)pyrazolo[3,4-d]pyrimidin-4-yl]-18-methyl-13-[3-(5-methyl-2,5-diazabicyclo[2.2.1]heptan-2-yl)propyl]-7-oxa-10,13,18,19-tetrazapentacyclo[15.6.1.1^2,6.1^8,11.0^20,24]hexacosa-1(23),2(26),3,5,17(24),19,21-heptaen-12-one], the “Clearance of human microsome” value in series [1] stood at 0.366 L/h/kg. In addition, the pIC50 in series [2] was 8.15; in the series with STING (IFN-β in hPBMC) it was 5.60.

For the origin of these results see US20260070927A1, “INDAZOLE MACROCYCLES FOR THE TREATMENT OF AUTOIMMUNE DISEASE” (Hoffmann-La Roche Inc., priority 2022, published 2026).
